In brackets after ≈: the same amount, converted by molar mass.
Experiments:
[1] = Aqueous […] of the compound; type: physicochemical; details: aqueous (not further specified)
Pseudomonas aeruginosa = test: Antibacterial activity against Pseudomonas aeruginosa PAO1 after 18 hrs by twofold microbroth dilution method; type: functional; details: PAO1, 18 h
Streptococcus pneumoniae [2] = test: Antibacterial activity against Streptococcus pneumoniae J-24 after 18 hrs by twofold microbroth dilution method; type: functional; details: J-24, 18 h
Mus musculus [3] = test: Toxicity in Slc:ddY mouse at 150 mg/kg, iv; type: organism-based; set-up: dose 150 mg/kg, route intravenous; details: in vivo
Mus musculus [4] = test: Toxicity in Slc:ddY mouse at 100 mg/kg, iv; type: organism-based; set-up: dose 100 mg/kg, route intravenous; details: in vivo
Klebsiella pneumoniae = test: Antibacterial activity against Klebsiella pneumoniae type 2 after 18 hrs by twofold microbroth dilution method; type: functional; details: type 2, 18 h
Enterococcus faecalis [5] = test: Antibacterial activity against Enterococcus faecalis ATCC 19433 after 18 hrs by twofold microbroth dilution method; type: functional; details: ATCC19433, 18 h
Streptococcus pyogenes = test: Antibacterial activity against Streptococcus pyogenes G-36 after 18 hrs by twofold microbroth dilution method; type: functional; details: G-36, 18 h
[6] = system: Staphylococcus epidermidis; test: Antibacterial activity against Staphylococcus epidermidis 56500 after 18 hrs by twofold microbroth dilution method; type: functional; details: Staphylococcus epidermidis, 56500, 18 h
Staphylococcus aureus [7] = test: Antibacterial activity against Staphylococcus aureus FDA 209-P after 18 hrs by twofold microbroth dilution method; type: functional
Streptococcus mitis = test: Antibacterial activity against Streptococcus mitis IID685 after 18 hrs by twofold microbroth dilution method; type: functional; details: IID685, 18 h
Escherichia coli = test: Antibacterial activity against Escherichia coli NIHJ after 18 hrs by twofold microbroth dilution method; type: functional
Mus musculus [8] = test: Toxicity in Slc:ddY mouse assessed as micronucleated reticulocyte in blood at 100 mg/kg, iv after 48 hrs of treatment by fluorescence microscopy; type: organism-based; set-up: dose 100 mg/kg, route intravenous; details: in vivo
Mus musculus [9] = test: Toxicity in Slc:ddY mouse at 50 mg/kg, iv; type: organism-based; set-up: dose 50 mg/kg, route intravenous; details: in vivo
Staphylococcus aureus [10] = test: Selectivity ratio of IC50 for Staphylococcus aureus DNA topoisomerase 4 Ser80Phe mutant to IC50 for Staphylococcus aureus wild type DNA topoisomerase 4
DNA gyrase = DNA gyrase (Staphylococcus aureus, UniProt P0A0K8+P20831); test: Inhibition of Staphylococcus aureus wild type DNA gyrase; type: protein-complex assay
Enterococcus faecium = test: Antibacterial activity against vancomycin-resistant Enterococcus faecium after 18 hrs by twofold microbroth dilution method; type: functional
[11] = Inhibition of Staphylococcus aureus DNA topoisomerase 4 Ser80Phe mutant
Enterococcus faecalis [12] = test: Antibacterial activity against vancomycin-resistant Enterococcus faecalis after 18 hrs by twofold microbroth dilution method; type: functional
Staphylococcus aureus [13] = test: Selectivity ratio of IC50 for Staphylococcus aureus DNA gyrase Ser84Leu mutant to IC50 for Staphylococcus aureus wild type DNA gyrase
Staphylococcus aureus [14] = test: Antibacterial activity against ciprofloxacin, methicillin-resistant Staphylococcus aureus after 18 hrs by twofold microbroth dilution method; type: functional
DNA gyrase subunit A = DNA gyrase subunit A (Staphylococcus aureus, UniProt P20831, S84L); test: Inhibition of Staphylococcus aureus DNA gyrase Ser84Leu mutant
[15] = Inhibition of Staphylococcus aureus wild type DNA topoisomerase 4
Streptococcus pneumoniae [16] = test: Antibacterial activity against penicillin-intermediate resistant Streptococcus pneumoniae after 18 hrs by twofold microbroth dilution method; type: functional
Staphylococcus aureus [17] = test: Antibacterial activity against levofloxacin, methicillin-resistant Staphylococcus aureus after 18 hrs by twofold microbroth dilution method; type: functional

Row | Structure (SMILES) | solubility [1] [µg/mL] | MIC (Pseudomonas aeruginosa) [µg/mL] | MIC (Streptococcus pneumoniae [2]) [µg/mL] | Activity (Mus musculus [3]) | Activity (Mus musculus [4]) | MIC (Klebsiella pneumoniae) [µg/mL] | MIC (Enterococcus faecalis [5]) [µg/mL] | MIC (Streptococcus pyogenes) [µg/mL] | MIC [6] [µg/mL] | MIC (Staphylococcus aureus [7]) [µg/mL] | MIC (Streptococcus mitis) [µg/mL] | MIC (Escherichia coli) [µg/mL] | Activity (Mus musculus [9]) | MIC50 (Enterococcus faecium) [µg/mL] | MIC90 (Enterococcus faecium) [µg/mL] | MIC50 (Enterococcus faecalis [12]) [µg/mL] | MIC90 (Enterococcus faecalis [12]) [µg/mL] | MIC50 (Staphylococcus aureus [14]) [µg/mL] | MIC90 (Staphylococcus aureus [14]) [µg/mL] | further results
1 | COc1c(N2CC[C@@H](C3(N)CCC3)C2)ccc2c(=O)c(C(=O)O)cn([C@@H]3C[C@@H]3F)c12 | 604 (≈ 1450 µM) | 0.39 (≈ 0.939 µM) | 0.006 (≈ 0.0144 µM) | Toxic | Non-toxic | 0.05 (≈ 0.12 µM) | 0.05 (≈ 0.12 µM) | 0.006 (≈ 0.0144 µM) | 0.012 (≈ 0.0289 µM) | ≤ 0.003 | 0.003 (≈ 0.00722 µM) | 0.012 (≈ 0.0289 µM) | Non-toxic | – | – | – | – | – | – | Activity (Mus musculus [8]): Toxic
2 | CNC1([C@@H]2CCN(c3c(F)cc4c(=O)c(C(=O)O)cn([C@@H]5C[C@@H]5F)c4c3OC)C2)CC1 | 173 (≈ 399 µM) | 0.2 (≈ 0.461 µM) | ≤ 0.003 | Toxic | Toxic | 0.012 (≈ 0.0277 µM) | 0.025 (≈ 0.0577 µM) | 0.003 (≈ 0.00692 µM) | 0.006 (≈ 0.0138 µM) | ≤ 0.003 | 0.003 (≈ 0.00692 µM) | ≤ 0.003 | Toxic | – | – | – | – | – | – | –
3 | N[C@@H]1[C@H]2CN(c3nc4c(cc3F)c(=O)c(C(=O)O)cn4-c3ccc(F)cc3F)C[C@@H]12 [TROVAFLOXACIN] | – | 0.2 (≈ 0.48 µM) | 0.05 (≈ 0.12 µM) | – | – | 0.025 (≈ 0.06 µM) | 0.2 (≈ 0.48 µM) | 0.2 (≈ 0.48 µM) | 0.05 (≈ 0.12 µM) | 0.013 (≈ 0.0312 µM) | 0.1 (≈ 0.24 µM) | ≤ 0.003 | – | – | – | – | – | – | – | –
4 | COc1c(N2CC[C@@H](C3(N)CCC3)C2)c(F)cc2c(=O)c(C(=O)O)cn([C@@H]3C[C@@H]3F)c12 | 180 (≈ 415 µM) | 0.39 (≈ 0.9 µM) | ≤ 0.003 | Toxic | – | 0.025 (≈ 0.0577 µM) | 0.025 (≈ 0.0577 µM) | 0.003 (≈ 0.00692 µM) | ≤ 0.003 | ≤ 0.003 | 0.003 (≈ 0.00692 µM) | ≤ 0.003 | – | – | – | – | – | – | – | –
5 | COc1c(N2CC[C@@H]([C@H](C)N)C2)c(F)cc2c(=O)c(C(=O)O)cn(C3CC3)c12 | 89 (≈ 229 µM) | – | – | – | Toxic | 0.05 (≈ 0.128 µM) | 0.05 (≈ 0.128 µM) | 0.012 (≈ 0.0308 µM) | 0.012 (≈ 0.0308 µM) | – | 0.025 (≈ 0.0642 µM) | 0.012 (≈ 0.0308 µM) | Toxic | – | – | – | – | – | – | –
6 | COc1c(N2CCNC(C)C2)c(F)cc2c(=O)c(C(=O)O)cn(C3CC3)c12 (configuration not stated) [GATIFLOXACIN] | – | 0.78 (≈ 2.08 µM) | 0.2 (≈ 0.533 µM) | – | – | 0.05 (≈ 0.133 µM) | 0.39 (≈ 1.04 µM) | 0.39 (≈ 1.04 µM) | 0.2 (≈ 0.533 µM) | 0.05 (≈ 0.133 µM) | 0.2 (≈ 0.533 µM) | 0.006 (≈ 0.016 µM) | – | 4 (≈ 10.7 µM) | 32 (≈ 85.2 µM) | 16 (≈ 42.6 µM) | 32 (≈ 85.2 µM) | 4 (≈ 10.7 µM) | 64 (≈ 170 µM) | Ratio IC50 (Staphylococcus aureus [10]): 12.2; IC50 (DNA gyrase): 8.58 µM; IC50 [11]: 22.5 µg/mL (≈ 59.9 µM); Ratio IC50 (Staphylococcus aureus [13]): 89.1; IC50 (DNA gyrase subunit A): 765 µM; IC50 [15]: 1.85 µg/mL (≈ 4.93 µM); MIC50 (Streptococcus pneumoniae [16]): 0.5 µg/mL (≈ 1.33 µM); MIC90 (Streptococcus pneumoniae [16]): 0.5 µg/mL (≈ 1.33 µM)
7 | COc1c(N2C[C@@H]3CCCN[C@@H]3C2)c(F)cc2c(=O)c(C(=O)O)cn(C3CC3)c12 [MOXIFLOXACIN] | – | 0.78 (≈ 1.94 µM) | 0.025 (≈ 0.0623 µM) | – | – | 0.05 (≈ 0.125 µM) | 0.2 (≈ 0.498 µM) | 0.2 (≈ 0.498 µM) | 0.1 (≈ 0.249 µM) | 0.013 (≈ 0.0324 µM) | 0.1 (≈ 0.249 µM) | 0.006 (≈ 0.0149 µM) | – | 4 (≈ 9.96 µM) | 32 (≈ 79.7 µM) | 16 (≈ 39.9 µM) | 32 (≈ 79.7 µM) | 2 (≈ 4.98 µM) | 32 (≈ 79.7 µM) | MIC50 (Staphylococcus aureus [17]): 4 µg/mL (≈ 9.96 µM); MIC80 (Staphylococcus aureus [17]): 32 µg/mL (≈ 79.7 µM); MIC90 (Staphylococcus aureus [17]): 32 µg/mL (≈ 79.7 µM); IC50 [11]: 24.2 µg/mL (≈ 60.3 µM); IC50 [15]: 1.36 µg/mL (≈ 3.39 µM)
8 | NCC[C@H](O)C(=O)N[C@@H]1C[C@H](N)[C@@H](O[C@H]2O[C@H](CN)CC[C@H]2N)[C@H](O)[C@H]1O[C@H]1O[C@H](CO)[C@@H](O)[C@H](N)[C@H]1O [ARBEKACIN] | – | – | – | – | – | – | – | – | – | – | – | – | – | 16 (≈ 29 µM) | 32 (≈ 57.9 µM) | 2 (≈ 3.62 µM) | 2 (≈ 3.62 µM) | 8 (≈ 14.5 µM) | 32 (≈ 57.9 µM) | MIC50 (Streptococcus pneumoniae [16]): 32 µg/mL (≈ 57.9 µM); MIC90 (Streptococcus pneumoniae [16]): 64 µg/mL (≈ 116 µM)

Reference: ChEMBL document CHEMBL1152592, “Design, synthesis and biological evaluations of novel 7-[3-(1-aminocycloalkyl)pyrrolidin-1-yl]-6-desfluoro-8-methoxyquinolones with potent antibacterial activity against multi-drug resistant Gram-positive bacteria” (Bioorg Med Chem, 2009)
